Measurements taken from the NIST ThermoML archive (doi:10.1021/acs.jced.7b00176).

Test: xn = mol fraction of the nth substance listed
Conditions: Liquid, Vibrating tube method

COCCOCCOC [2,5,8-trioxanonane] + CCCCO
Conditions	mass density [kg/m3]
283.55 K, 100000 kPa, x2 = 0.5469	947.45
283.56 K, 40000 kPa, x2 = 0.5469	918.49
283.56 K, 60000 kPa, x2 = 0.5469	928.98
283.56 K, 80000 kPa, x2 = 0.5469	938.59
283.58 K, 5000 kPa, x2 = 0.5469	897.03
283.58 K, 10000 kPa, x2 = 0.5469	900.4
283.58 K, 20000 kPa, x2 = 0.5469	906.81
283.58 K, 30000 kPa, x2 = 0.5469	912.81
283.59 K, 100 kPa, x2 = 0.5469	893.58
283.59 K, 1000 kPa, x2 = 0.5469	894.22
283.62 K, 100 kPa, x2 = 0.7308	866.59
283.62 K, 1000 kPa, x2 = 0.7308	867.24
283.62 K, 5000 kPa, x2 = 0.7308	870.06
283.62 K, 10000 kPa, x2 = 0.7308	873.45
283.62 K, 20000 kPa, x2 = 0.7308	879.83
283.62 K, 30000 kPa, x2 = 0.7308	885.83
283.62 K, 40000 kPa, x2 = 0.7308	891.47
283.62 K, 60000 kPa, x2 = 0.7308	901.94
283.62 K, 80000 kPa, x2 = 0.7308	911.46
283.62 K, 100000 kPa, x2 = 0.7308	920.22
283.65 K, 100 kPa, x2 = 0.3116	922.56
283.65 K, 5000 kPa, x2 = 0.3116	926
283.65 K, 20000 kPa, x2 = 0.3116	935.72
283.65 K, 30000 kPa, x2 = 0.3116	941.81
283.65 K, 40000 kPa, x2 = 0.3116	947.48
283.65 K, 60000 kPa, x2 = 0.3116	958.06
283.65 K, 80000 kPa, x2 = 0.3116	967.62
283.65 K, 100000 kPa, x2 = 0.3116	976.51
283.66 K, 1000 kPa, x2 = 0.3116	923.21
283.66 K, 10000 kPa, x2 = 0.3116	929.34
283.66 K, 20000 kPa, x2 = 0.8787	855.19
283.66 K, 30000 kPa, x2 = 0.8787	861.18
283.66 K, 40000 kPa, x2 = 0.8787	866.81
283.66 K, 60000 kPa, x2 = 0.8787	877.23
283.66 K, 80000 kPa, x2 = 0.8787	886.62
283.66 K, 100000 kPa, x2 = 0.8787	895.34
283.67 K, 100 kPa, x2 = 0.8787	841.93
283.67 K, 1000 kPa, x2 = 0.8787	842.59
283.67 K, 5000 kPa, x2 = 0.8787	845.4
283.67 K, 10000 kPa, x2 = 0.8787	848.78
283.67 K, 40000 kPa, x2 = 0	978.49
283.67 K, 60000 kPa, x2 = 0	989.12
283.67 K, 80000 kPa, x2 = 0	998.75
283.67 K, 100000 kPa, x2 = 0	1007.71
283.68 K, 10000 kPa, x2 = 0	960.29
283.68 K, 20000 kPa, x2 = 0	966.68
283.68 K, 30000 kPa, x2 = 0	972.8
283.69 K, 100 kPa, x2 = 0	953.48
283.69 K, 1000 kPa, x2 = 0	954.15
283.69 K, 5000 kPa, x2 = 0	956.94
303.46 K, 80000 kPa, x2 = 0.8787	874
303.46 K, 100000 kPa, x2 = 0.8787	883.23
303.47 K, 100 kPa, x2 = 0	933.69
303.47 K, 1000 kPa, x2 = 0	934.43
303.47 K, 30000 kPa, x2 = 0.8787	846.7
303.47 K, 60000 kPa, x2 = 0.8787	863.93
303.48 K, 5000 kPa, x2 = 0	937.55
303.48 K, 10000 kPa, x2 = 0	941.31
303.48 K, 10000 kPa, x2 = 0.8787	833.12
303.48 K, 20000 kPa, x2 = 0.8787	840.14
303.48 K, 40000 kPa, x2 = 0.8787	852.78
303.49 K, 100 kPa, x2 = 0.8787	825.51
303.49 K, 5000 kPa, x2 = 0.8787	829.38
303.49 K, 20000 kPa, x2 = 0	948.42
303.49 K, 30000 kPa, x2 = 0	955.17
303.49 K, 40000 kPa, x2 = 0	961.41
303.49 K, 60000 kPa, x2 = 0	973.02
303.5 K, 1000 kPa, x2 = 0.7308	850.15
303.5 K, 1000 kPa, x2 = 0.8787	826.23
303.5 K, 5000 kPa, x2 = 0.7308	853.29
303.5 K, 10000 kPa, x2 = 0.7308	857.01
303.5 K, 20000 kPa, x2 = 0.7308	864.06
303.5 K, 30000 kPa, x2 = 0.7308	870.65
303.5 K, 40000 kPa, x2 = 0.5469	902.93
303.5 K, 40000 kPa, x2 = 0.7308	876.8
303.5 K, 60000 kPa, x2 = 0.5469	914.29
303.5 K, 60000 kPa, x2 = 0.7308	888.07
303.5 K, 79990 kPa, x2 = 0.7308	898.18
303.5 K, 80000 kPa, x2 = 0	983.33
303.5 K, 80000 kPa, x2 = 0.5469	924.52
303.5 K, 100000 kPa, x2 = 0	992.97
303.5 K, 100000 kPa, x2 = 0.5469	933.93
303.5 K, 100000 kPa, x2 = 0.7308	907.47
303.51 K, 100 kPa, x2 = 0.5469	875.36
303.51 K, 100 kPa, x2 = 0.7308	849.42
303.51 K, 1000 kPa, x2 = 0.5469	876.1
303.51 K, 10000 kPa, x2 = 0.5469	883.02
303.51 K, 20000 kPa, x2 = 0.5469	890.1
303.51 K, 30000 kPa, x2 = 0.5469	896.73
303.52 K, 5000 kPa, x2 = 0.5469	879.25
303.55 K, 100000 kPa, x2 = 0.3116	962.26
303.56 K, 10000 kPa, x2 = 0.3116	911.05
303.56 K, 20000 kPa, x2 = 0.3116	918.17
303.56 K, 30000 kPa, x2 = 0.3116	924.8
303.56 K, 40000 kPa, x2 = 0.3116	931.1
303.56 K, 60000 kPa, x2 = 0.3116	942.54
303.56 K, 80000 kPa, x2 = 0.3116	952.82
303.57 K, 100 kPa, x2 = 0.3116	903.4
303.57 K, 1000 kPa, x2 = 0.3116	904.14
303.57 K, 5000 kPa, x2 = 0.3116	907.29
322.62 K, 100 kPa, x2 = 0	914.41
322.62 K, 1000 kPa, x2 = 0	915.3
322.62 K, 5000 kPa, x2 = 0	918.77
322.62 K, 10000 kPa, x2 = 0	923.02
322.62 K, 20000 kPa, x2 = 0	930.99
322.62 K, 30000 kPa, x2 = 0	938.31
322.62 K, 40000 kPa, x2 = 0	945.16
322.62 K, 60000 kPa, x2 = 0	957.74
322.62 K, 80000 kPa, x2 = 0	968.98
322.62 K, 100000 kPa, x2 = 0	979.2
323.22 K, 100 kPa, x2 = 0.5469	857.29
323.22 K, 1000 kPa, x2 = 0.5469	858.13
323.22 K, 5000 kPa, x2 = 0.5469	861.6
323.23 K, 10000 kPa, x2 = 0.5469	865.79
323.23 K, 20000 kPa, x2 = 0.5469	873.63
323.23 K, 30000 kPa, x2 = 0.5469	880.92
323.23 K, 40000 kPa, x2 = 0.5469	887.67
323.23 K, 60000 kPa, x2 = 0.5469	899.96
323.24 K, 80000 kPa, x2 = 0.5469	911.05
323.24 K, 100000 kPa, x2 = 0.5469	920.96
323.26 K, 100 kPa, x2 = 0.7308	831.9
323.26 K, 1000 kPa, x2 = 0.7308	832.7
323.26 K, 5000 kPa, x2 = 0.7308	836.19
323.26 K, 10000 kPa, x2 = 0.7308	840.37
323.26 K, 20000 kPa, x2 = 0.7308	848.19
